Values after ≈ are worked out from the molar mass of the structure shown. Where two headings read alike, the source gives them in different places. Bounds are passed on as bounds.

The nature of series [1]: Water-solubility at pH2.0. Type of series: physicochemical. The conditions noted are these: for solubility: aqueous medium (water) at pH 2.0, pH 2, simulated gastric fluid.
Series [2] concerns K101E drug-resistant virus. Briefly: Activity against drug-resistant virus K101E. The format is cell-based, HIV. The following applies: Human immunodeficiency virus 1, read-out: Drug-resistant viruses EC50, K101E.
Series [3] can be described thus: Incubation experiment of human liver microsomes. The format is in vitro ADME. The following applies: for half-life: read-out: HLM t1/2. In general terms: Microsomes from liver hold many membrane-bound enzymes, among them those of drug oxidation.
The subject of a further series is NL4-3 virus. In words: Anti-HIV activity assay (TZM-bl cell model), NL4-3 wild-type. The conditions noted are these: read-out: EC50, concentration effective to inhibit the replication of half of viruses. Type of series: cell-based. On the procedure: (§1) The assay was carried out by reference to the document (Dang, Z, et al. J. Med. Chem. 2009, 52, 7887-7891). In particular, in a 96-well cell culture plate, solutions of the compounds to be tested at different concentrations were mixed with TZM-bl cells (from National Institutes of Health (NIH)) infected with 200 TCID50 NL4-3 virus, respectively. 2 days later, the culture medium was removed, 100 μl of Bright Glo reagent was added to each well, and Victor 2 luminometer was used to detect the […] of the cells.

The subject of series [4] is NL4-3 virus (HIV, wild-type). The series is described as above. The following applies: human, TZM-bl cells infected with HIV-1 NL4-3 virus; CC50 (TZM-bl) / EC50 (NL4-3); read-out: SI, selective index, ratio of toxic CC50 value to active EC50 value. The format is cell-based. On the procedure: as §1
Series [5] has as its system multi-drug resistant viral strain of HIV-1 RT (RTMDR). In words: Activity against drug-resistant virus RTMDR. The format is cell-based. The following applies: Human immunodeficiency virus 1, read-out: Drug-resistant viruses EC50, RTMDR.
A short description of series [6]: TZM-bl cytotoxicity assay (XTT). The conditions noted are these: human, TZM-bl cells, read-out: CC50, concentration effective to inhibit the growth of half of cells. Type of series: cell-based. On the procedure:
The assay was carried out by reference to the document (Dang, Z, et al. J. Med. Chem. 2009, 52, 7887-7891). In particular, in a 96-well cell culture plate, solutions of Compounds 1-57 at different concentrations (100 μl) were mixed with an equivalent volume of TZM-bl cells (from National Institutes of Health (NIH)) (5×10^5/mL), and were incubated at 37° C. for 4 d. 50 μl of freshly prepared XTT solution (1 mg/mL) containing 0.02 μM PMS was added. Optical density at 450 nm was measured 4 h later.

The subject of series [7] is E138K drug-resistant virus. Briefly: Activity against drug-resistant virus E138K. The format is cell-based, HIV. The following applies: Human immunodeficiency virus 1, read-out: Drug-resistant viruses EC50, E138K.
The mark [8] stands for this setting: Human immunodeficiency virus 1, NL43, TZM-bl.

Take `Cc1cc(CCC#N)cc(C)c1Oc1cc(Nc2ccc(C#N)cc2)c(N)cc1C(F)(F)F` [Compound 2, 5-(4″-cyanoethyl-2″,6″-dimethylphenoxy)-N^1-(4′-cyanophenyl)-4-trifluoromethyl-1,2-phenylenediamine]: the Water-solubility in series [1] is 0.33 µg/mL. For the same compound, the EC50 in [2] is 47.6 nM; in the series with NL4-3 virus (setting [8]), 1.13 nM; in series [5] it was 3.2 nM; in [7], 34.4 nM. The “HLM t1/2” value in series [3] is given as 55.7 min. In addition, the selectivity ratio at 2 days in series [4] is > 6280. Also, the CC50 at 4 d in [6] is > 7100 nM.

As usually defined, the solubility is how much of the substance goes into solution per volume. In turn, `COC(=O)c1cc(N)c(Nc2ccc(C#N)cc2)cc1Oc1c(C)cc(CCC#N)cc1C` [Compound 4, 5-(4″-cyanoethyl-2″,6″-dimethylphenoxy)-N^1-(4′-cyanophenyl)-4-methoxycarbonyl-1,2-phenylenediamine] registered a solubility in series [1] of 1.21 µg/mL (≈ 2.75 µM). Moreover, the EC50 in [2] is 14 nM; in the series with NL4-3 virus (setting [8]), 4.3 nM; in [5], 4.1 nM; in [7], 7.5 nM. The “HLM t1/2” value in series [3] amounted to 186 min. In addition, in series [4], the selectivity ratio at 2 days was > 5260. Moreover, the CC50 at 4 d in [6] is > 22700 nM.

`Cc1cc(CCC#N)cc(C)c1Oc1cc(Nc2ccc(C#N)cc2)c(N)cc1CO` [Compound 6, 5-(4″-cyanoethyl-2″,6″-dimethylphenoxy)-N^1-(4′-cyanophenyl)-4-hydroxymethyl-1,2-phenylenediamine] registered a solubility in series [1] of 18.8 µg/mL (≈ 45.6 µM). The EC50 came out at 3.4 nM in series [2], 0.39 nM with NL4-3 virus (setting [8]), 1.8 nM in series [5] and 2.9 nM in [7]. The “HLM t1/2” value in series [3] is 20.9 min. Also, the selectivity ratio at 2 days in series [4] was determined as 61000. In series [6], the CC50 at 4 d is > 23800 nM.

Turning to `CNC(=O)c1cc(N)c(Nc2ccc(C#N)cc2)cc1Oc1c(C)cc(CCC#N)cc1C` [Compound 12, 5-(4″-cyanoethyl-2″,6″-dimethylphenoxy)-N^1-(4′-cyanophenyl)-4-(N-methyl-carbamoyl)-1,2-phenylenediamine], the solubility in [1] was 8.28 µg/mL (≈ 18.8 µM). The EC50 in series [2] amounted to 14 nM; in the series with NL4-3 virus (setting [8]), 2.73 nM. Moreover, the “HLM t1/2” value in series [3] came out at 55.7 min. The selectivity ratio at 2 days in series [4] is > 3330. Moreover, the CC50 at 4 d in series [6] is > 9100 nM.

As usually defined, the melting point is the temperature, or range, at which the solid turns liquid. `Cc1cc(/C=C/C#N)cc(C)c1Oc1cc(Nc2ccc(C#N)cc2)c([N+](=O)[O-])cc1S(N)(=O)=O` [Compound 13, N-(4′-cyanophenyl)-5-(4″-cyanovinyl-2″,6″-dimethylphenoxy)-4-aminosulfonyl-2-nitroaniline] showed a melting point of 198 to 200 °C.

For the compound `Cc1cc(CO)cc(C)c1Oc1cc(Nc2ccc(C#N)cc2)c([N+](=O)[O-])cc1CO` [Compound 17, N-(4′-cyanophenyl)-5-(4″-hydroxymethyl-2″,6″-dimethylphenoxy)-4-hydroxymethyl-2-nitroaniline], the melting point is 216 to 218 °C.

For `COc1cc(CCC#N)cc(Br)c1Oc1ccc(N)c(Nc2ccc(C#N)cc2)n1` [Compound 26A], the solubility in [1] is 1.77 µg/mL (≈ 3.81 µM). In addition, the EC50 in series [2] is 3.89 nM; in the series with NL4-3 virus (setting [8]) it was 3.25 nM; in series [5], 3.46 nM; in [7] it was 6.93 nM. For the same compound, the half-life in series [3] is 54.7 min. The selectivity ratio at 2 days in series [4] amounted to 6560. For the same compound, the CC50 at 4 d in series [6] stood at 21000 nM.

In [1], `N#CCCc1cc(Br)c(Oc2ccc(N)c(Nc3ccc(C#N)cc3)n2)c(Br)c1` [Compound 28] displayed a solubility of 3.26 µg/mL (≈ 6.35 µM). The EC50 was determined as 7.63 nM in series [2], 0.33 nM in the series on NL4-3 virus (setting [8]), 0.74 nM in series [5] and 4.11 nM in [7]. Moreover, in [3], the half-life amounted to 23 min. For the same compound, in [4], the selectivity ratio at 2 days amounted to 24900. The CC50 at 4 d in series [6] is 8210 nM.

For the compound `CC(=O)/C=C/c1cc(F)c(Oc2ccc([N+](=O)[O-])c(Nc3ccc(C#N)cc3)n2)c(F)c1` [Compound 29, N^2-(4-cyanoanilinyl)-6-(2,6-difluoro-4-((E)-1-methyleneacetonyl)phenoxy)-3-nitropyridine], the melting point lay in the range of 275 to 277 °C.

Compound `Cc1cc(CCC#N)cc(C)c1Oc1cc(Nc2ccc(C#N)cc2)c(N)cc1CNC1CC1` [Compound 34, 5-(4″-cyanoethyl-2″,6″-dimethylphenoxy)-N^1-(4′-cyanophenyl)-4-(2-cyclopropylaminomethyl)-1,2-phenylenediamine] gave a solubility in series [1] of 9.11 µg/mL (≈ 20.2 µM). The EC50 in [2] was found to be 27.3 nM; with NL4-3 virus (setting [8]), 0.53 nM; in [5], 4.88 nM; in [7] it was 25.7 nM. In series [3], the half-life was found to be 42 min. Moreover, in series [4], the selectivity ratio at 2 days was > 9430. Besides, the CC50 at 4 d in series [6] was > 5000 nM.

Compound `Cc1cc(CCC#N)cc(C)c1Oc1cc(Nc2ccc(C#N)cc2)c(N)cc1N` [Compound 35, 5-(4″-cyanoethyl-2″,6″-dimethylphenoxy)-N^1-(4′-cyanophenyl)-4-amino-1,2,4-triaminobenzene] registered a melting point of 118 to 120 °C. The EC50 with NL4-3 virus (Human immunodeficiency virus 1, NL43, NL4-3 HIV wild-type, TZM-bl cells) was determined as 6.1 nM. Further, the selectivity ratio at 2 days in series [4] was > 820. In addition, the CC50 at 4 d in [6] was > 5000 nM.

The values above are taken from US9340492B2, “Meta-Diarylaniline or meta-diarylpyridinamine compound, preparation method and medical uses thereof” (INSTITUTE OF PHARMACOLOGY AND TOXICOLOGY ACADEMY OF …, priority 2012, dated 2016).
